From article PMC8953385, “2-Styrylchromones: Cytotoxicity and Modulation of Human Neutrophils’ Oxidative Burst” (Pharmaceuticals, 2022)

How the values were obtained:
[1] = test system: human neutrophils; assay: Annexin V/PI flow cytometric assay of neutrophils’ viability; assay type: cell-based; details: for Higher 2-SC concentration that did not affect human neutrophils’ viability: annexin V/PI assay, 40 min incubation at 37 °C
Excerpt: (§1) Following the Declaration of Helsinki and the approval of patient-related procedures and protocols by the Ethics Committee of Centro Hospitalar do Porto, Portugal, venous blood was collected from healthy human blood donors, after informed consent. The blood was stored into K3EDTA vacuum tubes after antecubital venipuncture of the donors. In order to obtain the isolated neutrophils, the density gradient centrifugation method was applied, as previously reported, with modifications. In brief, in a 15 mL polypropylene tube, 3 mL of histopaque 1119 were added followed by 3 mL of histopaque 1077 and finally, 4.5 mL of the collected blood were slowly added. Each tube was centrifuged at 900× g at 20 °C for 30 min, with a medium acceleration and deceleration speed. Following centrifugation, the neutrophils’ portion was harvested, and PBS was added to double the volume. The neutrophils’ suspension was then centrifuged at 850× g at 4 °C for 5 min, using a maximum acceleration and deceleration speed. The supernatant was discarded, and the neutrophils’ pellet was resuspended in PBS and afterward milli-Q water was added to lyse the residual erythrocytes. The tube was gently homogenized and after a few minutes, 3% NaCl was added to restore isotony, and then centrifuged again at 850× g at 4 °C for 5 min, using a maximum acceleration and deceleration speed. The supernatant was discarded, and a neutrophils’ pellet was obtained. After isolation, the neutrophils’ pellet was resuspended in the incubation media, tris-glucose buffer (25 mM Trizma® base, 5.5 mM D-glucose, 140 mM NaCl, 1.26 mM CaCl2, 0.81 mM MgSO4, 5.37 mM KCl, pH = 7.4). Neutrophils’ suspension was kept on ice, under soft shaking, until use. The trypan blue exclusion method was used to determine cells’ yield and viability.
The effect of the studied 2-SC on neutrophils’ viability was assessed by flow cytometry, after simultaneous staining with FITC Annexin V and propidium iodide (PI) (Figure S1), as previously reported by our research group, with modifications. After isolation, neutrophils (1 × 10^6 cells/mL) were incubated with 2-SC (up to 100.00 μM) or DMSO for 40 min, at 37 °C, in a 48-well plate. At the end of incubation, the content of each well was transferred to conical microtubes and centrifuged at 400× g at 20 °C for 5 min. After discarding the supernatant, the neutrophils’ pellet was resuspended in PBS and centrifuged under the previous conditions. Once the supernatant was removed, the pellet was resuspended in 10× diluted binding buffer, and then PI and annexin V were added. This mixture was incubated in the dark at room temperature for 15 min, and finally, 10× diluted binding buffer was added. In a flow cytometer, the fluorescence signal, of at least 10,000 cells/sample, were collected in logarithmic mode and followed in channels 1 and 3. The green fluorescence corresponding to annexin V FITC was accompanied in channel 1 and plotted as a histogram of FL1 staining, whereas the fluorescence corresponding to PI was monitored in channel 3 and plotted in the same histogram but as FL3 staining. The collected data were analyzed with the BD Accuri™ C6 software. The data analysis was restricted to the neutrophils’ population. Thus, according to the light-scattering properties of neutrophils (in a forward versus side scatter plot), a polygon gate was drawn, where debris and other blood cells were excluded. The effect of 2-SC on neutrophils’ viability was expressed as a relative percentage of apoptotic and/or necrotic cells when compared to the control (without 2-SC).

[2] = test system: human neutrophils’ oxidative burst; assay: Neutrophils’ oxidative burst, PMA stimulation, luminol chemiluminescence; assay type: cell-based; details: for IC50: PMA 160.00 nM, luminol 500.00 μM, mean ± SEM, read-out: IC50, inhibition of human neutrophils’ oxidative burst
Excerpt: as §1
The effect of 2-SC on the modulation of neutrophils’ oxidative burst was assessed after the stimulation of these cells with PMA by monitoring the oxidation of chemiluminescent probe, luminol, by the generated reactive species (Figure S2), according to a previously described methodology. Briefly, neutrophils (1 × 10^6 cells/mL) were pre-incubated with luminol (500.00 μM), and 2-SC (0.00–100.00 μM) or DMSO, at the final concentrations indicated. After this pre-incubation, at 37 °C for 5 min, PMA (160.00 nM) was added, and in turn, neutrophils’ stimulation was initiated. Kinetic readings were immediately initiated and followed for 40 min, at 37 °C, in a microplate reader. The arbitrary chemiluminescence value was taken at the peak of the curve, and the results were expressed as the inhibition percentage of luminol oxidation.
GraphPad Prism 6 software was used to plot the curves of percentage of inhibition versus concentrations of compound, from which the concentration that produces 50% of inhibition (IC50) was determined. GraphPad Prism 6 software was also used to perform all statistical analyses. […] In all cases, p-values < 0.05 were considered statistically significant. The results are expressed as mean ± standard error of the mean (SEM).

| Compound | Higher 2-SC concentration that did not affect human neutrophils’ viability [1] [µM] | further results |
| --- | --- | --- |
| O=c1cc(/C=C/c2ccccc2)oc2ccccc12 [A1] | 75.00 | inhibition at 75 µM ([2]; Homo sapiens, Neutrophil, 75.00 µM (highest tested concentration), read-out: Inhibitory activity (% ± SEM), neutrophils’ oxidative burst): < 30% |
| O=c1cc(/C=C/c2ccccc2)oc2cccc(O)c12 [A2] | 6.25 | – |
| COc1cccc2oc(/C=C/c3ccccc3)cc(=O)c12 [A5] | 6.25 | – |
| O=c1cc(/C=C/c2cccc(O)c2)oc2ccccc12 [A6] | 100.00 | inhibition at 100 µM ([2]; Homo sapiens, Neutrophil, 100.00 µM (highest tested concentration), read-out: Inhibitory activity (% ± SEM), neutrophils’ oxidative burst): < 30% |
| O=c1cc(/C=C/c2cccc(O)c2)oc2cccc(O)c12 [A7] | 6.25 | – |
| O=c1cc(/C=C/c2ccccc2O)oc2cccc(O)c12 [A8] | 25.00 | inhibition at 25 µM ([2]; Homo sapiens, Neutrophil, 25.00 µM (highest tested concentration), read-out: Inhibitory activity (% ± SEM), neutrophils’ oxidative burst): < 30% |
| O=c1cc(/C=C/c2ccc(O)cc2)oc2ccccc12 [B1] | 25.00 | Effect on total neutrophils’ population percentage ([1]; 50.00 μM): affected the total neutrophils’ population percentage; IC50 ([2]; Homo sapiens, Neutrophil): 7500 ± 400 nM |
| O=c1cc(/C=C/c2ccc(O)cc2)oc2cc(O)ccc12 [B3] | 25.00 | IC50 ([2]; Homo sapiens, Neutrophil): 4100 ± 300 nM |
| O=c1cc(/C=C/c2ccc(O)cc2)oc2cc(O)cc(O)c12 [B4] | 6.25 | IC50 ([2]; Homo sapiens, Neutrophil): 3100 ± 300 nM |
| COc1cc(O)c2c(=O)cc(/C=C/c3ccc(O)cc3)oc2c1 [B5] | 6.25 | – |
| O=c1cc(/C=C/c2ccc(O)c(O)c2)oc2ccccc12 [B6] | 12.50 | IC50 ([2]; Homo sapiens, Neutrophil): 1000 ± 100 nM; Times more active than B1 (oxidative burst) ([2]; comparison of IC50 values with B1): ~7.5 times |
| O=c1cc(/C=C/c2ccc(O)c(O)c2)oc2cccc(O)c12 [B7] | 0.38 | Effect on human neutrophils’ viability ([1]; 0.38 μM): no effect on the viability was observed; Inhibitory activity (% ± SEM), neutrophils’ oxidative burst ([2]; 0.38 µM (highest tested concentration)): did not show an inhibitory effect; inhibition at 0.38 µM ([2]; Homo sapiens, Neutrophil, 0.38 µM (highest tested concentration), read-out: Inhibitory activity (% ± SEM), neutrophils’ oxidative burst): < 30% |
| O=c1cc(/C=C/c2ccc(O)c(O)c2)oc2cc(O)ccc12 [B8] | 25.00 | IC50 ([2]; Homo sapiens, Neutrophil): 700 ± 100 nM |
| O=c1cc(/C=C/c2ccc(OCc3ccccc3)c(OCc3ccccc3)c2)oc2ccccc12 [D1] | 12.50 | – |
| COc1cc(OC)c2c(=O)cc(/C=C/c3ccc(OCc4ccccc4)c(OCc4ccccc4)c3)oc2c1 [D2] | 12.50 | – |
| COc1ccc2c(=O)cc(/C=C/c3ccc(OCc4ccccc4)c(OCc4ccccc4)c3)oc2c1OC [D3] | 12.50 | – |
| Cc1ccc(/C=C/c2cc(=O)c3ccccc3o2)cc1 [E1] | 25.00 | – |
| Cc1ccc(/C=C/c2cc(=O)c3c(O)cccc3o2)cc1 [E2] | 12.50 | – |
| O=c1cc(/C=C/c2ccc([N+](=O)[O-])cc2)oc2cccc(O)c12 [F2] | 12.50 | – |
| O=c1cc(/C=C/c2cccc(Cl)c2)oc2cccc(O)c12 [G1] | 12.50 | – |
| COc1ccc2c(=O)c(Br)c(/C=C/c3ccccc3)oc2c1 [H1] | 12.50 | – |
| COc1ccc2c(=O)c(Br)c(/C=C/c3ccc(OC)c(OC)c3)oc2c1 [H3] | 12.50 | – |
| O=c1c(O)c(-c2ccc(O)c(O)c2)oc2cc(O)cc(O)c12 [Quercetin, quercetin, reference compound] | – | IC50 ([2]; Homo sapiens, Neutrophil): 800 ± 100 nM |
